Data on nine compounds can be found in PubChem BioAssay (NCI).

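How tested: cells in 96-well plates exposed to compound for 48 hours at five concentrations. GI50 = concentration required for 50% inhibition of growth. TGI: concentration producing complete growth inhibition.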 Where only a bound is given, the exact number is not on record here.

Some test systems named below: U251 CNS; OVCAR-8 ovarian; SK-MEL-5 melanoma; NCI-H226 lung; K-562 leukemia; MOLT-4 leukemia; ACHN renal; OVCAR-5 ovarian; IGROV1 ovarian; TK-10 renal.
What all share (assay): NCI anticancer screen, dose series, 48 h

In the case of `CN(C)c1ccc2c(c1)Sc1cc(N(C)C)ccc1N2C(=O)c1ccccc1`, the GI50 is 45.5 µM in the test with U251 CNS; 50.3 µM in the test with OVCAR-8 ovarian; 28.1 µM with SK-MEL-5 melanoma; 71.6 µM in the test on NCI-H226 lung; 2.69 µM in the test on K-562 leukemia; 38.1 µM in the test with MOLT-4 leukemia. Further, the GI50 in the test on ACHN renal is 32.4 µM; in the test on OVCAR-5 ovarian, greater than 100 µM; in the test on IGROV1 ovarian, 14.1 µM. For the same compound, the TGI with U251 CNS, in the test on OVCAR-8 ovarian, with SK-MEL-5 melanoma, in the test with NCI-H226 lung, in the test on K-562 leukemia and in the test with MOLT-4 leukemia was greater than 100 µM each time. For the same compound, the values for the TGI in the test with ACHN renal, in the test with OVCAR-5 ovarian and in the test with IGROV1 ovarian were greater than 100 µM, greater than 100 µM and 77.6 µM, respectively.
`Cc1cc(N(CCC#N)CCC#N)ccc1/C=C/C(=O)Nc1cccc(Cl)c1`: the TGI with U251 CNS, in the test with OVCAR-8 ovarian, with SK-MEL-5 melanoma, in the test on TK-10 renal, in the test with NCI-H226 lung and in the test on K-562 leukemia was greater than 100 µM throughout. The TGI in the test on MOLT-4 leukemia, with ACHN renal, in the test on OVCAR-5 ovarian and with IGROV1 ovarian was greater than 100 µM throughout.
As for `C=CC(=O)N1CCN(c2ccc3cccc(NC(=O)c4cnc(C)cn4)c3n2)CC1`, the GI50 was 3.85 µM with U251 CNS; 3.46 µM with OVCAR-8 ovarian; 4.42 µM with SK-MEL-5 melanoma; 1.12 µM with TK-10 renal; 4.44 µM in the test with NCI-H226 lung; 3.6 µM in the test on K-562 leukemia. Besides, the GI50 was 2.18 µM in the test with MOLT-4 leukemia, 0.656 µM in the test with ACHN renal, 16.5 µM with OVCAR-5 ovarian and 1.29 µM in the test with IGROV1 ovarian. Moreover, the TGI in the test with U251 CNS was 36.4 µM; in the test on OVCAR-8 ovarian, greater than 100 µM; in the test on SK-MEL-5 melanoma, 16.9 µM; with TK-10 renal, greater than 100 µM; in the test with NCI-H226 lung, 22.3 µM; in the test with K-562 leukemia, greater than 100 µM. Further, the TGI in the test with MOLT-4 leukemia is 6.66 µM; in the test on ACHN renal, greater than 100 µM; in the test on OVCAR-5 ovarian, 81.7 µM; with IGROV1 ovarian it was 15.2 µM.
For `C=C1COC(/C=C(\C)CC/C=C(\C)CCl)C1` (stereo not drawn), the TGI in the test with U251 CNS, in the test on OVCAR-8 ovarian, in the test with SK-MEL-5 melanoma, with TK-10 renal, with NCI-H226 lung and with K-562 leukemia was greater than 100 µM throughout. In addition, the TGI in the test with MOLT-4 leukemia, in the test on ACHN renal, in the test on OVCAR-5 ovarian and with IGROV1 ovarian was greater than 100 µM throughout.
With `CC(=O)OC1CCn2nnc(CO[Si](C)(C)C(C)(C)C)c21` (stereo not drawn), the TGI in the test on U251 CNS, in the test on OVCAR-8 ovarian, with SK-MEL-5 melanoma, in the test on TK-10 renal, with NCI-H226 lung and in the test with K-562 leukemia was greater than 100 µM in each case. Moreover, the TGI with MOLT-4 leukemia, in the test on ACHN renal, in the test on OVCAR-5 ovarian and with IGROV1 ovarian was greater than 100 µM in each case.
For `CC(C)CC(CC1=CCC2CC1C2(C)C)C1=C(O)C(C)(C)C(=O)C(C)(C)C1=O` (stereo not drawn), the GI50 in the test on U251 CNS is 0.335 µM; in the test with OVCAR-8 ovarian, 0.379 µM; in the test with SK-MEL-5 melanoma, 0.206 µM; in the test with TK-10 renal, 0.424 µM; in the test with NCI-H226 lung, 0.42 µM; with K-562 leukemia, 0.334 µM. Besides, the GI50 was 0.343 µM in the test with MOLT-4 leukemia, 0.352 µM with ACHN renal, 0.386 µM in the test with OVCAR-5 ovarian and 0.5 µM in the test with IGROV1 ovarian. Moreover, the TGI was greater than 100 µM with U251 CNS; greater than 100 µM in the test with OVCAR-8 ovarian; 0.468 µM in the test on SK-MEL-5 melanoma; 98.9 µM in the test on TK-10 renal; 9.46 µM with NCI-H226 lung; greater than 100 µM with K-562 leukemia. Further, the TGI with MOLT-4 leukemia was 1.6 µM; in the test with ACHN renal, 3.58 µM; in the test with OVCAR-5 ovarian, greater than 100 µM; in the test on IGROV1 ovarian, greater than 100 µM.
As for `CCOC(=O)C(C)(c1cn(C)c2ccccc12)c1cn(C)c2ccccc12`, the TGI with U251 CNS, in the test on OVCAR-8 ovarian, with SK-MEL-5 melanoma, with TK-10 renal, with NCI-H226 lung and in the test on K-562 leukemia was greater than 100 µM each time. The TGI in the test with MOLT-4 leukemia, in the test with ACHN renal, in the test with OVCAR-5 ovarian and in the test with IGROV1 ovarian was greater than 100 µM throughout.
On to `Cc1cc(N/N=C/c2nc(-c3ccc(Br)cc3)oc2C)c2cc(Cl)ccc2n1`, for which the GI50 with U251 CNS, with OVCAR-8 ovarian, with SK-MEL-5 melanoma, in the test with TK-10 renal, with NCI-H226 lung and in the test on K-562 leukemia was greater than 100 µM throughout. Also, the GI50 with MOLT-4 leukemia, with ACHN renal, with OVCAR-5 ovarian and with IGROV1 ovarian was greater than 100 µM each time. In addition, the TGI in the test with U251 CNS, in the test on OVCAR-8 ovarian, in the test with SK-MEL-5 melanoma, in the test on TK-10 renal, with NCI-H226 lung and in the test on K-562 leukemia was greater than 100 µM each time. In addition, the TGI in the test on MOLT-4 leukemia, in the test on ACHN renal, in the test with OVCAR-5 ovarian and in the test on IGROV1 ovarian was greater than 100 µM each time.
For the compound `C=CCc1cc(OC)c2c(c1)C(O)CC(c1ccccc1)O2` (stereo not drawn), the TGI in the test on U251 CNS, with OVCAR-8 ovarian, in the test on SK-MEL-5 melanoma, in the test with TK-10 renal, in the test on NCI-H226 lung and with K-562 leukemia was greater than 100 µM throughout. Also, the TGI with MOLT-4 leukemia, in the test with ACHN renal, with OVCAR-5 ovarian and in the test on IGROV1 ovarian was greater than 100 µM throughout.
